Entries after “also recorded” stand apart in the source; their conditions may differ. Structures can show the parent of a compound that is named as a salt.
How the values were obtained:
Assay type in all cases: physicochemical
[1] = Stability determination (thermal stability and photostability, HPLC purity, appearance, XRPD); details: for physical and chemical stability (in words): 50 °C/75% RH or brown light exposure; for XRPD: crystalline form found; for crystalline form transformation (in words): high temperature and light exposure
Procedure: (§1) The stability and solubility of the crystalline free form of the compound of formula (I) or the basic salt thereof of the present application were determined by HPLC.
An appropriate amount of the sample was placed in a vial and left to stand at 50 °C, 80 °C or 50 °C & 75% RH (open) for 7 days to evaluate thermal stability. An appropriate amount of the sample was placed in a transparent vial, […] evaluation under conditions of overall near-ultraviolet energy of 1.2 * 10^6 Lux·hr and no less than 200 W·hr/m2.

[2] = Hygroscopic behavior test by dynamic vapor sorption (DVS)
Excerpt: The experimental method of characterizing the crystalline free form of the compound of formula (I) or the basic salt thereof using dynamic vapor sorption (DVS) is as follows: a small amount of the crystalline sample was placed in a precision sample tray that was compatible with the instrument; after the sample was loaded, the sample tray was placed into the instrument for analysis. In this patent, the instruments used for dynamic vapor sorption were all the DVS Intrinsic plus model, and the following experimental parameters were set: nitrogen was used as the carrier gas, a constant temperature of 25 °C was set, the rate of mass percentage change over a unit of time (dm/dt) = 0.002%/min was used as a criterion for determining if equilibrium is reached, and the program humidity change cycle was set to 50-95-0-95-50% RH; within the range of 0-90% RH, a change of 10% RH was taken as a step, and within the range of 90% RH-95% RH, a change of 5% RH was taken as a step.
In the present invention, the hygroscopic weight increases (hygroscopic weight increase/weight before hygroscopy * 100%) of various crystalline forms under various relative humidity conditions were determined using the dynamic vapor sorption method, and the hygroscopicity of different crystalline compounds was evaluated.

[3] = Solubility determination (equilibrium solubility, 24 hrs stirring at room temperature, HPLC); details: for Equilibrium solubility: target concentration 2000 µg/mL, 24 hrs; for pH24 hrs: pH of the filtrate after 24 hrs
Procedure: as §1
The desired amount of the compound was weighed into a glass vial, and the desired amount of a vehicle was added. A stir bar was added to the vial, and the mixture was stirred at room temperature for 24 hrs. After 24 hrs, the appearance of the sample was observed. An appropriate amount of the sample was filtered through a PVDF 0.45 µm filter membrane, and the filtrate was collected. The pH value of the filtrate was determined, and the sample was diluted with MeOH. The diluted sample was injected into an HPLC system to determine the concentration.

[4] = Aluminum foil light exposure control, 9.2 days
[5] = Brown vial light exposure control, 9.2 days
[6] = Transparent light exposure, 9.2 days
[7] = pH 4.7, 50 mM acetic acid buffer
[8] = pH 6.8, 50 mM phosphoric acid buffer

Cc1c(NC(=O)c2cc(C3CC3)c(CN3CCCC[C@H]3C(=O)O)cn2)cccc1-c1cccc(NC(=O)c2cc(C3CC3)c(CN3CCCC[C@H]3C(=O)O)cn2)c1C [crystalline form A of disodium salt hydrate] [(2S,2'S)-1,1'-(((((2,2'-dimethyl-[1,1'-biphenyl]-3,3'-diyl)bis(azanediyl))bis(carbonyl))bis(4-cyclopropylpyridine-6,3-diyl))bis(methylene))bis(piperidine-2-carboxylic acid)]
physical and chemical stability (in words) ([1]; 50 °C): relatively high physical and chemical stability
Appearance ([1]; 50 °C, 7 days): White powder
Purity (%) ([1]; 50 °C, 7 days): 99.45%
Appearance ([1]; 50 °C/75%RH, 7 days): White powder
Purity (%) ([1]; 50 °C/75%RH, 7 days): 99.46%
Appearance ([1]; 80 °C, 7 days): White powder
Purity (%) ([1]; 80 °C, 7 days): 99.34%
Appearance [1, 4]: White powder
Purity (%) [1, 4]: 99.51%
Appearance [1, 5]: White powder
Purity (%) [1, 5]: 99.50%
Appearance ([1]; Initial, 0 days): White powder
Purity (%) ([1]; Initial, 0 days): 99.38%
Appearance [1, 6]: White powder
Purity (%) [1, 6]: 99.22%
XRPD ([1]; 50 °C, 7 days): Crystalline form A of disodium salt
XRPD ([1]; 50 °C/75%RH, 7 days): Crystalline form A of disodium salt
XRPD ([1]; 80 °C, 7 days): Crystalline forms A + B of disodium salt
XRPD [1, 4]: Crystalline form A of disodium salt
XRPD [1, 5]: Crystalline form A of disodium salt
XRPD ([1]; Initial, 0 days): Crystalline form A of disodium salt
XRPD [1, 6]: Crystalline forms A + B of disodium salt
crystalline form transformation (in words) [1]: underwent crystalline form transformation; also recorded: undergoes crystalline form transformation
chemical stability (in words) ([1]; various stability testing conditions, incl. high temperature and light exposure): good chemical stability; also recorded: relatively high chemical stability
Hygroscopic weight increase (%) ([2]; Relative humidity 0.0 % at 25 °C): 0.00%
Hygroscopic weight increase (%) ([2]; Relative humidity 10.0 % at 25 °C): 2.40%
Hygroscopic weight increase (%) ([2]; Relative humidity 20.0 % at 25 °C): 7.45%
Hygroscopic weight increase (%) ([2]; Relative humidity 30.0 % at 25 °C): 9.28%
Hygroscopic weight increase (%) ([2]; Relative humidity 40.0 % at 25 °C): 10.62%
Hygroscopic weight increase (%) ([2]; Relative humidity 50.0 % at 25 °C): 11.64%
Hygroscopic weight increase (%) ([2]; Relative humidity 60.0 % at 25 °C): 12.43%
Hygroscopic weight increase (%) ([2]; Relative humidity 70.0 % at 25 °C): 13.25%
Hygroscopic weight increase (%) ([2]; Relative humidity 80.0 % at 25 °C): 14.59%
crystalline form changes after DVS testing ([2]; after DVS testing): no crystalline form changes
weight increased ([2]; at 80% RH): more than 10%
Equilibrium solubility ([3]; FaSSGF): 22 µg/mL
Equilibrium solubility ([3]; FaSSIF): 303 µg/mL
Equilibrium solubility ([3]; FeSSIF): > 2000 µg/mL
Equilibrium solubility ([3]; Water, room temperature): > 2000 µg/mL
Equilibrium solubility ([3]; pH 1.2, HCl 100 mM): 1120 µg/mL
Equilibrium solubility [3, 7]: 25 µg/mL
Equilibrium solubility [3, 8]: 34 µg/mL
pH24 hrs ([3]; FaSSGF): 1.73
pH24 hrs ([3]; FaSSIF): 6.93
pH24 hrs ([3]; FeSSIF): 7.95
pH24 hrs ([3]; Water): 9.61
pH24 hrs ([3]; pH 1.2, HCl 100 mM): 1.01
pH24 hrs [3, 7]: 4.61
pH24 hrs [3, 8]: 6.88

Cc1c(NC(=O)c2cc(C3CC3)c(CN3CCCC[C@H]3C(=O)O)cn2)cccc1-c1cccc(NC(=O)c2cc(C3CC3)c(CN3CCCC[C@H]3C(=O)O)cn2)c1C [crystalline form B of disodium salt anhydrate] [(2S,2'S)-1,1'-(((((2,2'-dimethyl-[1,1'-biphenyl]-3,3'-diyl)bis(azanediyl))bis(carbonyl))bis(4-cyclopropylpyridine-6,3-diyl))bis(methylene))bis(piperidine-2-carboxylic acid)]
physical and chemical stability (in words) ([1]; 50 °C): relatively high physical and chemical stability
Appearance ([1]; 50 °C, 7 days): White powder
Purity (%) ([1]; 50 °C, 7 days): 92.11%
Appearance ([1]; 50 °C/75%RH, 7 days): White powder
Purity (%) ([1]; 50 °C/75%RH, 7 days): 92.97%
Appearance ([1]; 80 °C, 7 days): White powder
Purity (%) ([1]; 80 °C, 7 days): 90.77%
Appearance [1, 4]: White powder
Purity (%) [1, 4]: 89.50%
Appearance [1, 5]: White powder
Purity (%) [1, 5]: 88.10%
Appearance ([1]; Initial, 0 days): White powder
Purity (%) ([1]; Initial, 0 days): 91.23%
Appearance [1, 6]: White powder
Purity (%) [1, 6]: 83.10%
XRPD ([1]; 50 °C, 7 days): Crystalline form B of disodium salt
XRPD ([1]; 50 °C/75%RH, 7 days): Crystalline form B of disodium salt
XRPD ([1]; 80 °C, 7 days): Crystalline form B of disodium salt
XRPD [1, 4]: Crystalline form B of disodium salt
XRPD [1, 5]: Crystalline form B of disodium salt
XRPD ([1]; Initial, 0 days): Crystalline form B of disodium salt
XRPD [1, 6]: Crystalline form B of disodium salt
crystalline form transformation (in words) [1]: no crystalline form transformation was observed
sensitivity to light (in words) ([1]; light exposure): sensitive to light exposure
physical stability (in words) ([1]; stability testing conditions, incl. high temperature and high humidity): good physical stability; also recorded: relatively high physical stability
Equilibrium solubility ([3]; FaSSGF): 485 µg/mL
Equilibrium solubility ([3]; FaSSIF): 474 µg/mL
Equilibrium solubility ([3]; FeSSIF): ≥ 2000 µg/mL
Equilibrium solubility ([3]; Water, room temperature): ≥ 2000 µg/mL
Equilibrium solubility ([3]; pH 1.2, HCl 100 mM): ≥ 2000 µg/mL
Equilibrium solubility [3, 7]: 135 µg/mL
Equilibrium solubility [3, 8]: 194 µg/mL
pH24 hrs ([3]; FaSSGF): 1.72
pH24 hrs ([3]; FaSSIF): 6.93
pH24 hrs ([3]; FeSSIF): 6.90
pH24 hrs ([3]; Water): 9.96
pH24 hrs ([3]; pH 1.2, HCl 100 mM): 0.95
pH24 hrs [3, 7]: 4.92
pH24 hrs [3, 8]: 7.03
solubility (in words) ([3]; various pH conditions, buffers and biological medium solutions): excellent solubility
